# Results reported in patent US12629374B2, “Antimalarial agents” (Merck Sharp & Dohme LLC, priority 2020, dated 2026).
# System: ring stage parasites
# Assay: Parasite growth potency assay, 72 hours, LDH readout
# Format: cell-based
# Conditions: 72 h, parasite growth measured by LDH assay after 72 hours at 37° C.; 0.7% rings, 2% haematocrit; read-out: EC50
# Method in brief: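 Parasite growth was quantified by LDH assay after a −80 °C freeze-thaw. Before that, compound was incubated for 72 h at 37 °C under humidified gas with ring-stage cultures adjusted to 0.7% parasitemia and 2% haematocrit in serum- and albumax-supplemented RPMI-Hepes.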
row,SMILES,EC50 [nM]
1,"CCC1(CC)CC(=O)N([C@@H](c2cccc(C(=O)N[C@H]3CCOc4ccccc43)c2)c2cncs2)C(=N)N1 [Example 85A, N-[(4S)-chroman-4-yl]-3-[(4,4-diethyl-2-imino-6-oxo-hexahydropyrimidin-1-yl)-thiazol-5-yl-methyl]benzamide]",1
2,"CCC1(COC)CC(=O)N(Cc2cccc(C(=O)N[C@H]3CCOc4ccccc43)c2)C(=N)N1 (stereo partly drawn) [Example 86, [1-[[3-[[(4S)-chroman-4-yl]carbamoyl]phenyl]methyl]-4-ethyl-4-(methoxymethyl)-6-oxo-hexahydropyrimidin-2-ylidene]ammonium; 2,2,2-trifluoroacetate]",49.6
3,"CCC1(COC)CC(=O)N(Cc2cccc(C(=O)N[C@@H]3c4ccccc4C[C@H]3O)c2)C(=N)N1 (stereo partly drawn) [Example 95, [4-ethyl-1-[[3-[[(1R,2R)-2-hydroxyindan-1-yl]carbamoyl]phenyl]methyl]-4-(methoxymethyl)-6-oxo-hexahydropyrimidin-2-ylidene]ammonium; 2,2,2-trifluoroacetate]",43.2
4,"CCC1(CC)CC(=O)N([C@@H](c2cccc(C(=O)N[C@H]3CC(C)(C)Oc4ccccc43)c2)C(C)c2cccnc2)C(=N)N1 (stereo partly drawn) [Example 96, [1-[1-[3-[[(4S)-2,2-dimethylchroman-4-yl]carbamoyl]phenyl]-2-pyridin-1-ium-3-yl-propyl]-4,4-diethyl-6-oxo-hexahydropyrimidin-2-ylidenelammonium; 2,2,2-trifluoroacetate]",19.9
5,"CCC1(COC)CC(=O)N(Cc2cccc(C(=O)N[C@H]3CC(C)(C)Oc4ccccc43)c2)C(=N)N1 (stereo partly drawn) [Example 98A, [1-[[3-[[(4S)-2,2-dimethylchroman-4-yl]carbamoyl]phenyl]methyl]-4-ethyl-4-(methoxymethyl)-6-oxo-hexahydropyrimidin-2-ylidene]ammonium; 2,2,2-trifluoroacetate]",15.5
6,"CCC1(CC)CC(=O)N([C@H](c2cncc(F)c2)c2cccc(C(=O)N[C@H]3CC(C)(C)Oc4ccccc43)c2)C(=N)N1 [Example 99A, [1-[[3-[[(4S)-2,2-dimethylchroman-4-yl]carbamoyl]phenyl]-(5-fluoropyridin-1-ium-3-yl)methyl]-4,4-diethyl-6-oxo-hexahydropyrimidin-2-ylidene]ammonium; 2,2,2-trifluoroacetate]",0.6
7,"CCC1(CC)CC(=O)N([C@@H](c2cncc(F)c2)c2cccc(C(=O)N[C@H]3CC(C)(C)Oc4ccccc43)c2)C(=N)N1 [Example 99B, [1-[[3-[[(4S)-2,2-dimethylchroman-4-yl]carbamoyl]phenyl]-(5-fluoropyridin-1-ium-3-yl)methyl]-4,4-diethyl-6-oxo-hexahydropyrimidin-2-ylidene]ammonium; 2,2,2-trifluoroacetate]",2
8,"CCC1(CC)CC(=O)N([C@H](c2cccnc2)c2cccc(C(=O)N[C@H]3CC(C)(C)Oc4ccccc43)c2)C(=N)N1 [Example 100A, [1-[[3-[[(4S)-2,2-dimethylchroman-4-yl]carbamoyl]phenyl]-pyridin-1-ium-3-yl-methyl]-4,4-diethyl-6-oxo-hexahydropyrimidin-2-ylidene]ammonium; 2,2,2-trifluoroacetate]",0.4
9,"CCC1(CC)CC(=O)N([C@@H](c2cccnc2)c2cccc(C(=O)N[C@H]3CC(C)(C)Oc4ccccc43)c2)C(=N)N1 [Example 100B, [1-[[3-[[(4S)-2,2-dimethylchroman-4-yl]carbamoyl]phenyl]-pyridin-1-ium-3-yl-methyl]-4,4-diethyl-6-oxo-hexahydropyrimidin-2-ylidene]ammonium; 2,2,2-trifluoroacetate]",4.8
10,"CC(C)[C@]1(C)CC(=O)N([C@H](c2cccnc2)c2cccc(C(=O)N[C@H]3CC(C)(C)Oc4ccccc43)c2)C(=N)N1 [Example 101A, [(4S)-1-[[3-[[(4S)-2,2-dimethylchroman-4-yl]carbamoyl]phenyl]-pyridin-1-ium-3-yl-methyl]-4-isopropyl-4-methyl-6-oxo-hexahydropyrimidin-2-ylidene]ammonium; 2,2,2-trifluoroacetate]",0.3
11,"CC(C)[C@]1(C)CC(=O)N([C@@H](c2cccnc2)c2cccc(C(=O)N[C@H]3CC(C)(C)Oc4ccccc43)c2)C(=N)N1 [Example 101B, [(4S)-1-[[3-[[(4S)-2,2-dimethylchroman-4-yl]carbamoyl]phenyl]-pyridin-1-ium-3-yl-methyl]-4-isopropyl-4-methyl-6-oxo-hexahydropyrimidin-2-ylidene]ammonium; 2,2,2-trifluoroacetate]",1.5
12,"CCC[C@H](c1cccc(C(=O)N[C@@H]2c3ccccc3C[C@H]2O)c1)N1C(=N)NC(CC)(CC)CC1=O [Example 102, [4,4-diethyl-1-[(1R)-1-[3-[[(1R,2R)-2-hydroxyindan-1-yl]carbamoyl]phenyl]butyl]-6-oxo-hexahydropyrimidin-2-ylidene]ammonium; 2,2,2-trifluoroacetate]",0.5
13,"CCC1(CC)CC(=O)N([C@H](CCOC)c2cncc(C(=O)N[C@H]3CC(C)(C)Oc4ccccc43)c2)C(=N)N1 [Example 103, [1-[1-[5-I(4S)-2,2-dimethylchroman-4-yl]carbamoyl]pyridin-1-ium-3-yl]-3-methoxy-propyl]-4,4-diethyl-6-oxo-hexahydropyrimidin-2-ylidene]ammonium; 2,2,2-trifluoroacetate]",0.5
14,"COCC[C@H](c1cncc(C(=O)N[C@H]2CC(C)(C)Oc3ccccc32)c1)N1C(=N)N[C@](C)(C(C)C)CC1=O [Example 104, [(4S)-1-[1-[5-[[(4S)-2,2-dimethylchroman-4-yl]carbamoyl]pyridin-1-ium-3-yl]-3-methoxy-propyl]-4-isopropyl-4-methyl-6-oxo-hexahydropyrimidin-2-ylidene]ammonium; 2,2,2-trifluoroacetate]",0.9
15,"CCC1(CC)CC(=O)N(C(c2cncc(C(=O)N[C@H]3CC(C)(C)Oc4ccccc43)c2)c2cncs2)C(=N)N1 (stereo partly drawn) [Example 105A, [1-[[5-[[(4S)-2,2-dimethylchroman-4-yl]carbamoyl]pyridin-1-ium-3-yl]-thiazol-5-yl-methyl]-4,4-diethyl-6-oxo-hexahydropyrimidin-2-ylidene]ammonium; 2,2,2-trifluoroacetate]",0.5
16,"CCC1(CC)CC(=O)N([C@H](c2cncc(F)c2)c2cccc(C(=O)N[C@H]3CCOc4ccccc43)c2)C(=N)N1 [Example 106A, [1-[[3-[[(4S)-chroman-4-yl]carbamoyl]phenyl]-(5-fluoropyridin-1-ium-3-yl)methyl]-4,4-diethyl-6-oxo-hexahydropyrimidin-2-ylidene]ammonium; 2,2,2-trifluoroacetate]",0.5
17,"CCC1(CC)CC(=O)N([C@@H](c2cncc(F)c2)c2cccc(C(=O)N[C@H]3CCOc4ccccc43)c2)C(=N)N1 [Example 106B, [1-[[3-[[(4S)-chroman-4-yl]carbamoyl]phenyl]-(5-fluoropyridin-1-ium-3-yl)methyl]-4,4-diethyl-6-oxo-hexahydropyrimidin-2-ylidene]ammonium; 2,2,2-trifluoroacetate]",3.1
18,"CCC1(CC)CC(=O)N([C@H](CCC#N)c2cccc(C(=O)N[C@H]3CC(C)(C)Oc4ccccc43)c2)C(=N)N1 [Example 107, [1-[3-cyano-1-[3-[[(4S)-2,2-dimethylchroman-4-yl]carbamoyl]phenyl]propyl]-4,4-diethyl-6-oxo-hexahydropyrimidin-2-ylidene]ammonium; 2,2,2-trifluoroacetate]",0.2
19,"C#CCC[C@H](c1cccc(C(=O)N[C@H]2CC(C)(C)Oc3ccccc32)c1)N1C(=N)N[C@](C)(C(C)C)CC1=O [Example 108A, [(4S)-1-[1-[3-[[(4S)-2,2-dimethylchroman-4-yl]carbamoyl]phenyl]pent-4-ynyl]-4-isopropyl-4-methyl-6-oxo-hexahydropyrimidin-2-ylidene]ammonium; 2,2,2-trifluoroacetate]",0.4
20,"C#CCC[C@@H](c1cccc(C(=O)N[C@H]2CC(C)(C)Oc3ccccc32)c1)N1C(=N)N[C@](C)(C(C)C)CC1=O [Example 108B, [(4S)-1-[1-[3-[[(4S)-2,2-dimethylchroman-4-yl]carbamoyl]phenyl]pent-4-ynyl]-4-isopropyl-4-methyl-6-oxo-hexahydropyrimidin-2-ylidene]ammonium; 2,2,2-trifluoroacetate]",23.6
21,"CCC1(CC)CC(=O)N([C@H](c2cccnc2)c2cccc(C(=O)N[C@@H]3c4ccccc4C[C@H]3O)c2)C(=N)N1 [Example 109A, [4,4-diethyl-1-[[3-[[(1R,2R)-2-hydroxyindan-1-yl]carbamoyl]phenyl]-pyridin-1-ium-3-yl-methyl]-6-oxo-hexahydropyrimidin-2-ylidene]ammonium; 2,2,2-trifluoroacetate]",1.6
22,"CCC1(CC)CC(=O)N([C@@H](c2cccnc2)c2cccc(C(=O)N[C@@H]3c4ccccc4C[C@H]3O)c2)C(=N)N1 [Example 109B, [4,4-diethyl-1-[[3-[[(1R,2R)-2-hydroxyindan-1-yl]carbamoyl]phenyl]-pyridin-1-ium-3-yl-methyl]-6-oxo-hexahydropyrimidin-2-ylidene]ammonium; 2,2,2-trifluoroacetate]",22.9

# Same assay, conditions: parasite growth measured by LDH assay after 72 hours at 37° C.; 0.7% rings, 2% haematocrit; trifluoroacetate; read-out: EC50
row,SMILES,EC50 [nM]
1,"CCC1(COC)CC(=O)N(Cc2cccc(C(=O)N[C@H]3CC(C)(C)Oc4ccccc43)c2)C(=N)N1 (stereo partly drawn) [Example 98B, [1-[[3-[[(4S)-2,2-dimethylchroman-4-yl]carbamoyl]phenyl]methyl]-4-ethyl-4-(methoxymethyl)-6-oxo-hexahydropyrimidin-2-ylidene]ammonium; 2,2,2-trifluoroacetate]",8.1
2,"CCC1(CC)CC(=O)N(C(c2cncc(C(=O)N[C@H]3CC(C)(C)Oc4ccccc43)c2)c2cncs2)C(=N)N1 (stereo partly drawn) [Example 105B, [1-[[5-[[(4S)-2,2-dimethylchroman-4-yl]carbamoyl]pyridin-1-ium-3-yl]-thiazol-5-yl-methyl]-4,4-diethyl-6-oxo-hexahydropyrimidin-2-ylidene]ammonium; 2,2,2-trifluoroacetate]",0.6
